Measurements from US8828985B2, “Carbamate and urea inhibitors of 11-beta-hydroxysteroid dehydrogenase 1” (Vitae Pharmaceuticals, Inc., priority 2008, dated 2014).

Biological target: human 11β-HSD1 (Homo sapiens, UniProt P28845)
Assay: biochemical
Details: for inhibition at 0.1 µM: read-out: Biological Test Example 2 Average % inhibition at 100 nm, at 100 nm; for IC50: Biological Test Example 2 IC50 Range, microsomes from CHO cells overexpressing human 11β-HSD1, SPA
Description: All reactions are carried out at room temperature in 96 well clear flexible PET Microbeta plates (PerkinElmer). […] The reaction is stopped by adding 50 μl of the SPA beads suspension containing 10 μM 18β-glycyrrhetinic acid, 5 mg/ml protein A coated YSi SPA beads (GE Healthcare) and 3.3 μg/ml of anti-cortisol antibody (East Coast Biologics) in Superblock buffer (Bio-Rad). The plates are then shaken for 120 minutes at room temperature, and the SPA signal corresponding to [^3H]cortisol is measured on a Microbeta plate reader.

human 11β-HSD1, sequence (P28845 whole entry): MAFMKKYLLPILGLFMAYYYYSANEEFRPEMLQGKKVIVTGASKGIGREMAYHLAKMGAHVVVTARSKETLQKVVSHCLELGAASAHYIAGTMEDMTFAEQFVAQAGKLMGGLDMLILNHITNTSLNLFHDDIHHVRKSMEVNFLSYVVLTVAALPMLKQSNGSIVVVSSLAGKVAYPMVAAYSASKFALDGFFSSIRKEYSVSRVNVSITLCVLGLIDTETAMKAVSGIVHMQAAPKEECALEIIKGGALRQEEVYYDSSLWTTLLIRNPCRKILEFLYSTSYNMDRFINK

SMILES	inhibition at 0.1 µM (1.5 h) [%]	inhibition at 0.111 µM (1.5 h, read-out: Biological Test Example 2 Average % inhibition at 111 nm, at 111 nm) [%]	IC50 [nM]
N#Cc1ccc(N2CCCC23CCN(C(=O)O[C@H]2C4CC5CC2C[C@](C(N)=O)(C5)C4)C3)nc1 (stereo partly drawn) [Example 75, (trans-1-carbamoyl-4-adamantyl) 1-(5-cyanopyridin-2-yl)-1,7-diazaspiro[4.4]nonane-7-carboxylate]	98.8	97.7	< 100
COC(=O)C12CC3CC(C1)C(OC(=O)N1CC[C@@H](Nc4ncccc4C#N)C1)C(C3)C2 (stereo partly drawn) [Example 70, (R)-(1-(methoxycarbonyl)-4-adamantyl) 3-(3-cyanopyridin-2-ylamino)pyrrolidine-1-carboxylate]	78.4		< 100
N#Cc1ccc(N[C@@H]2CCN(C(=O)O[C@H]3C[C@H]4CC[C@@H](C3)N4C(N)=O)C2)nc1 [Example 105, (3R)-8-carbamoyl-8-azabicyclo[3.2.1]octan-3-yl 3-(5-cyanopyridin-2-ylamino)pyrrolidine-1-carboxylate]	14.8		> 100
NC(=O)[C@]12CC3CC(C1)[C@@H](OC(=O)N1CC[C@@H](Nc4nnc(C(F)(F)F)s4)C1)C(C3)C2 [Example 42, (R)-(trans-1-carbamoyl-4-adamantyl) 3-(5-(trifluoromethyl)-1,3,4-thiadiazol-2-ylamino)pyrrolidine-1-carboxylate]	79.3		< 100
O=C(O[C@H]1C2CC3CC1C[C@](O)(C3)C2)N1CC[C@@H](Nc2ccc3cc(Cl)ccc3n2)C1 [Example 95, (R)-(trans-1-hydroxy-4-adamantyl) 3-(6-chloroquinolin-2-ylamino)pyrrolidine-1-carboxylate]	90.6		< 100
N#Cc1cccnc1N[C@@H]1CCN(C(=O)O[C@H]2C3CC4CC2C[C@](C(N)=O)(C4)C3)C1 [Example 34, (R)-(trans-1-carbamoyl-4-adamantyl) 3-(3-cyanopyridin-2-ylamino)pyrrolidine-1-carboxylate]	94.6		< 100
N#Cc1ccc(N[C@@H]2CCN(C(=O)O[C@H]3C4CC5CC3C[C@](C(N)=O)(C5)C4)C2)nc1 [Example 35, (R)-(trans-1-carbamoyl-4-adamantyl) 3-(5-cyanopyridin-2-ylamino)pyrrolidine-1-carboxylate]	101		< 100
N#Cc1ccc(N[C@H]2CCN(C(=O)O[C@H]3C4CC5CC3C[C@](C(N)=O)(C5)C4)C2)nc1 [Example 65, (S)-(trans-1-carbamoyl-4-adamantyl) 3-(5-cyanopyridin-2-ylamino)pyrrolidine-1-carboxylate]	97.1		< 100
CN(c1cccc(C(F)(F)F)n1)C1CCN(C(=O)OC2C3CC4CC2CC(C(N)=O)(C4)C3)C1 (stereo not drawn) [Example 45, (trans-1-carbamoyl-4-adamantyl) 3-(methyl(6-(trifluoromethyl)pyridin-2-yl)amino)pyrrolidine-1-carboxylate]	97.7		< 100
CN(C(=O)c1ccc(N[C@@H]2CCN(C(=O)O[C@H]3C4CC5CC3C[C@](O)(C5)C4)C2)nc1)C(C)(C)C [Example 99, (trans-1-hydroxy-4-adamantyl) 3-(5-(tert-butyl(methyl)carbamoyl)pyridin-2-ylamino)pyrrolidine-1-carboxylate]	21.8		> 100
CN(C(=O)c1cccnc1N[C@@H]1CCN(C(=O)O[C@H]2C3CC4CC2C[C@](O)(C4)C3)C1)C(C)(C)C [Example 100, (trans-1-hydroxy-4-adamantyl) 3-(3-(tert-butyl(methyl)carbamoyl)pyridin-2-ylamino)pyrrolidine-1-carboxylate]	46.8		< 100
N#Cc1cnc(N[C@@H]2CCN(C(=O)O[C@H]3C4CC5CC3C[C@](O)(C5)C4)C2)c(Cl)c1 [Example 87, (R)-(trans-1-hydroxy-4-adamantyl) 3-(3-chloro-5-cyanopyridin-2-ylamino)pyrrolidine-1-carboxylate]	100		< 100
